Measured values reported in patent US9512115B2, “Inhibitors” (PROBIODRUG AG, priority 2013, dated 2016).

test: Pharmacokinetic parameters in mice after oral administration (plasma, brain, CSF); assay type: in vivo, mice (strain CD-1); conditions: brain tissue vs plasma; CD-1 mice, 30 mg/kg orally
Protocol: The mice were anesthetized with Isoflurane. Approximate 200 μL of each blood sample were collected via cardiac puncture for terminal bleeding into K2EDTA tubes. […] CSF collection: The animals were euthanized with pure CO2 inhalation. A mid line incision was made on the neck. The muscle under the skin was cut to expose the cisterna magna. The cisterna magna was penetrated with the sharp end of a capillary and CSF was collected via capillarity. […] A mid-line incision was made in the animal scalp. The brain was removed and rinsed with cold saline. Brain was placed into a screw-top tube and weighed. […] The brain concentration was corrected with a dilution factor of 4 as following: Brain concentration=brain homogenate conc.×4, assuming 1 g wet brain tissue equals to 1 ml. For plasma samples: […] For Brain samples: Brain tissue was homogenized for 2 min with 3 volumes (v/w) of PBS. […] For CSF samples: […] Tmax, T1/2, AUC and log BB values were calculated using conventional methods.

Row | Compound | logBB
1 | CC(F)(F)CCOc1ccc([C@H]2COC(=O)N2c2ccc3[nH]cnc3c2)c(F)c1F [compound 1, (S)-3-(1H-benzo[d]imidazol-5-yl)-4-(4-(3,3-difluorobutoxy)-2,3-difluorophenyl)-oxazolidin-2-one] | −0.9363
2 | CC(F)(F)COc1c(F)cc([C@H]2COC(=O)N2c2ccc3[nH]cnc3c2)cc1F [compound 8, (S)-3-(1H-benzo[d]imidazol-5-yl)-4-(4-(2,2-difluoropropoxy)-3,5-difluorophenyl)oxazolidin-2-one] | −0.9993
3 | O=C1OC[C@H](c2ccc(N3CCC(F)(F)C3)c(F)c2F)N1c1ccc2[nH]cnc2c1 [compound 19, (S)-3-(1H-benzo[d]imidazol-5-yl)-4-(4-(3,3-difluoropyrrolidin-1-yl)-2,3-difluorophenyl)-oxazolidin-2-one] | −1.2208
4 | CC(F)(F)CCOc1ccc([C@H]2COC(=O)N2c2ccc3[nH]cnc3c2)c(F)c1 [compound 3, (S)-3-(1H-benzo[d]imidazol-5-yl)-4-(4-(3,3-difluorobutoxy)-2-fluorophenyl)oxazolidin-2-one] | −1.0428
5 | CC(F)(F)CCOc1ccc([C@H]2COC(=O)N2c2ccc3[nH]cnc3c2)cc1F [compound 10, (S)-3-(1H-benzo[d]imidazol-5-yl)-4-(4-(3,3-difluorobutoxy)-3-fluorophenyl)oxazolidin-2-one] | −1.1234
6 | O=C1OC[C@H](c2ccc(OCCC(F)F)cc2F)N1c1ccc2[nH]cnc2c1 [compound 2, (S)-3-(1H-benzo[d]imidazol-5-yl)-4-(4-(3,3-difluoropropoxy)-2-fluorophenyl)oxazolidin-2-one] | −1.1517

More lines, now with the values ahead:

Row | logBB | Compound
7 | −0.9439 | CC(F)(F)COc1ccc([C@H]2COC(=O)N2c2ccc3[nH]cnc3c2)c(F)c1 [compound 7, (S)-3-(1H-benzo[d]imidazol-5-yl)-4-(4-(2,2-difluoropropoxy)-2-fluorophenyl)oxazolidin-2-one]
8 | −1.2913 | O=C1OC[C@H](c2ccc(N3CCC(F)(F)C3)cc2F)N1c1ccc2[nH]cnc2c1 [compound 18, (S)-3-(1H-benzo[d]imidazol-5-yl)-4-(4-(3,3-difluoropyrrolidin-1-yl)-2-fluorophenyl)-oxazolidin-2-one]
9 | −1.1821 | O=C1OC[C@H](c2ccc(OCCC(F)F)c(F)c2)N1c1ccc2[nH]cnc2c1 [compound 12, (S)-3-(1H-benzo[d]imidazol-5-yl)-4-(4-(3,3-difluoropropoxy)-3-fluorophenyl)oxazolidin-2-one]
10 | −1.0431 | CC(F)(F)COc1ccc([C@H]2COC(=O)N2c2ccc3[nH]cnc3c2)c(F)c1F [compound 6, (S)-3-(1H-benzo[d]imidazol-5-yl)-4-(4-(2,2-difluoropropoxy)-2,3-difluorophenyl)oxazolidin-2-one]
11 | −1.0928 | CC(F)(F)COc1ccc([C@H]2COC(=O)N2c2ccc3[nH]cnc3c2)cc1F [compound 5, (S)-3-(1H-benzo[d]imidazol-5-yl)-4-(4-(2,2-difluoropropoxy)-3-fluorophenyl)oxazolidin-2-one]
12 | −0.9451 | O=C1OC[C@H](c2ccc(OCCC(F)F)c(F)c2F)N1c1ccc2[nH]cnc2c1 [compound 11, (S)-3-(1H-benzo[d]imidazol-5-yl)-4-(4-(3,3-difluoropropoxy)-2,3-difluorophenyl)oxazolidin-2-one]
13 | −1.208 | O=C1OC[C@H](c2ccc(N3CCC(F)(F)C3)c(F)c2)N1c1ccc2[nH]cnc2c1 [compound 21, (S)-3-(1H-benzo[d]imidazol-5-yl)-4-(4-(3,3-difluoropyrrolidin-1-yl)-3-fluorophenyl) oxazolidin-2-one]
